Key:
Sjogren dry eye syndrome = conditions: person; 0.15% twice a day in both eyes
[1] = test system: mixed dry eye disease (severe tear deficiency Meibomian gland dysfunction (MGD)); conditions: one patient
[2] = test system: Evaporative dry eye (EDE) attributable to LASIK refractive surgery; conditions: person after LASIK; eye drops 0.15% in both eyes; most recent follow up
Description: The patient treated was a person with severe symptoms of ocular discomfort. The patient had undergone LASIK refractive surgery in both eyes. The prior treatment history was that the patient was on doxycycline pills, warm compresses, erythromycin ointment and intermittently on steroid eye drops. […] The patient instilled the eye drops on the surface of the eye and spread the excess eye drops to both eye lid margins.

[3] = test system: Non-Sjogren dry eye syndrome (Meibomian gland dysfunction); assay: Treatment of a patient with non-Sjogren dry eye syndrome, MGD not due to ocular GVHD (Example 4); conditions: person, 0.15% twice a day
[4] = test system: Meibomian gland dysfunction (MGD) in patients with chronic ocular Graft-Versus-Host-Disease (oGVHD); assay: Treatment of chronic ocular GVHD patients with Meibomian gland dysfunction, SGA and CGI assessment (Example 2)
[5] = ocular GVHD patients with MGD, summary statement

Q: `Brc1c(NC2=NCCN2)ccc2nccnc12` [brimonidine, 5-Bromo-N-(4,5-dihydro-1H-imidazol-2-yl) quinoxalin-6-amine] was tested. Which “patient-reported symptoms and redness” value (Sjogren dry eye syndrome) did it give?
A: The value was “improvement in symptoms and redness”.

Q: And the “conjunctival and eyelid margin redness” value ([1]; 0.15% aqueous solution twice a day to eyelash and eyelid margin area, 15 minutes after application)?
A: Its value is “significant reduction”.

Q: And the “patient-reported symptoms of ocular discomfort” value ([1]; 0.15% aqueous solution twice a day, after applying)?
A: Its value is “reduced”.

Q: What about the “patient-reported improvement of symptoms since starting treatment” value [2] of the same molecule?
A: The value was 90%.

Q: What about the side effects [3] of the same molecule?
A: The side effects was “No side effects were reported”.

Q: And the “tolerability of the drops” value [3]?
A: The value was “tolerated well”.

Q: What about the “patient-reported redness of both eyes” value ([3]; most recent follow up) of the same molecule?
A: Its value is “reduction in redness of both eyes”.

Q: And the “patient-reported symptoms of dryness and burning” value ([3]; most recent follow up)?
A: Its value is “reduction in symptoms of dryness and burning”.

Q: And the “patients who did not report any change (SGA)” value ([4]; 18 patients (n=2), 0.15% twice a day)?
A: Its value is 11%.

Q: What about the “patients who reported improvement (SGA)” value ([4]; 18 patients (n=6), 0.15% twice a day) of the same molecule?
A: The value was 33%.

Q: And the “patients who reported much improvement (SGA)” value ([4]; 18 patients (n=10), 0.15% twice a day)?
A: Its value is 55%.

Q: What about the “patients with moderate to marked improvements in CGI” value ([4]; 18 patients (n=15), 0.15% twice a day) of the same molecule?
A: The value was 83%.

Q: And the “patients clinically worsened (CGI)” value ([4]; 18 patients, 0.15% twice a day)?
A: The value was “No patients had clinically worsened”.

Q: And the “patients reporting worsening of symptoms or signs (SGA)” value ([4]; 18 patients, 0.15% twice a day)?
A: The value was “No patients reported worsening of symptoms or signs”.

Q: What about the “tolerability of the eye drops” value ([4]; 18 patients, 0.15% twice a day) of the same molecule?
A: The value was “easily tolerated”.

Q: And the “Subjective Global Assessment (SGA), mean (±SD)” value ([4]; 18 patients, five point scale (Much worse to Much improved), 0.15% one drop twice a day, followed 6 months or more)?
A: The value was 4.4±0.69.

Q: What about the “Clinical Global Impression (CGI), mean (±SD)” value ([4]; 18 patients, seven point scale (Marked worsening to Marked improvement), 0.15% twice a day) of the same molecule?
A: The value was 6.2±0.88.

Q: And the “patients tested with a beneficial effect” value [4, 5]?
A: The value was “approximately 90%”.

Q: What about the side effects [4, 5] of the same molecule?
A: Its side effects is “without significant side effects”.

Source: patent publication US10751337B2, “Preservative free ocular compositions and methods for using the same for treating dry eye disease and other eye disorders” (The Board of Trustees of the University of Illinois, priority 2015, dated 2020)
